In patent publication US20220235032A1 (GENFLEET THERAPEUTICS (SHANGHAI) INC., priority 2019, published 2022):

Assays:
RIPK1 enzyme = target: T1, RIPK1 enzyme (Homo sapiens, UniProt Q13546); assay: Inhibitory activity of the compounds against RIPK1 enzyme (P33-ATP, MBP substrate); type: biochemical; conditions: 36 nM RIPK1, substrate MBP, 10 mM magnesium ion, P33-labeled ATP, 2 h room temperature; read-out: RIPK1 enzyme inhibitory activety IC50
T1 construct: purchased Eurofins 16-022
T1 sequence (Q13546 1-671): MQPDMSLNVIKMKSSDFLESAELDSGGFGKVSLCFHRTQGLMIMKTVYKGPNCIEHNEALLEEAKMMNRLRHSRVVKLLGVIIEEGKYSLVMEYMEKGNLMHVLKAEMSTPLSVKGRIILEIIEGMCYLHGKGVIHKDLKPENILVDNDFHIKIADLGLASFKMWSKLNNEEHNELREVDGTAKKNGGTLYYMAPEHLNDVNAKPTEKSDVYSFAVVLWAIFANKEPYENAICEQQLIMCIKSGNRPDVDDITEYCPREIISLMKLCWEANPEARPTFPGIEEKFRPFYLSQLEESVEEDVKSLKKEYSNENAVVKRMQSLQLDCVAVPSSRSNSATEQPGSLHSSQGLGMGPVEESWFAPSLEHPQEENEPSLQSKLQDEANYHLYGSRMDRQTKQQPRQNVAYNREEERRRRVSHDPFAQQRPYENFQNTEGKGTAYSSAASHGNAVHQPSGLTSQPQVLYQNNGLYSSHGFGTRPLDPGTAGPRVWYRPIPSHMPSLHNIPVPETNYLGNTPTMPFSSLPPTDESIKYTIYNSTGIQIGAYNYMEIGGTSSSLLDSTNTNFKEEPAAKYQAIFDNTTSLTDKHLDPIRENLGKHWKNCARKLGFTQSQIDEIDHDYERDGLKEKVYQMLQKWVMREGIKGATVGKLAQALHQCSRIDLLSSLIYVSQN
Method: The compound to be tested was dissolved in DMSO, and diluted in 3.16 folds with DMSO to a series of gradient concentrations. Then, the solution was diluted with MOPS buffer pH 7.0 to the final concentration. The resultant working solution was mixed with 36 nM RIPK1 (final concentration) and the substrate MBP homogeneously. Thereafter, 10 mM magnesium ion and P^33 isotopically labeled ATP were added for the reaction. After the reaction was carried out at room temperature for 2 h, phosphoric acid was added to terminate the reaction. The final reaction system was tested using a liquid scintillation counter after treatment. The […] for the tested result and a positive control group were converted to activity percentage. The activity percentage was plotted against the final concentration of respective compound using a 4-parameter fitting to obtain the inhibitory IC50 of the compound against RIPK1 enzyme.

U937 cells = assay: Inhibitory activity against programmed necroptosis of U937 cells induced by TNF-α and Q-VD-Oph (CellTiter-Glo); type: cell-based; conditions: Celltiter-Glo survival rate
Method: The U937 cell strain which was used in the following Testing Examples was derived from ATCC, No.: CRL-1593.2, batch No.: 63479999, culture medium: RPMI-1640+10% FBS.
The compound to be tested was dissolved in DMSO, and diluted with DMSO to a series of gradient concentrations. The U937 cells were inoculated in a 384-well plate at 5000/well. The compound at respective concentration was added to each of the wells, and was mixed with the cells homogeneously. Human TNF-α and Q-VD-Oph were added simultaneously to induce programmed necroptosis of the cells. The cells were placed in the incubator at 37° C. and 5% CO2 for further culture of 48 h. Celltiter-Glo reagent was used for detection. After adequate pyrolysis reaction, the chemiluminescence readout value was recorded by a microplate reader. The survival rate was calculated from the detection results using the equation as follows: SR (%)=(RLU compound−RLU blank)/(RLU high control−RLU blank)×100%. The survival rate was plotted against the final concentration of respective compound using a 4-parameter fitting to calculate the inhibitory C50 of the compound against programmed necroptosis of cells induced by TNF-α.

[1] = human TNF-α + Q-VD-Oph induced necroptosis, 48 h

Structure (SMILES) | IC50 (RIPK1 enzyme) [µM] | IC50 (U937 cells; Homo sapiens, U-937, 48 h) [µM] | IC50 (U937 cells; [1]) [µM]
N#Cc1cc(N2CC3CC(C(=O)N4N=CCC4c4ccccc4)CC3C2)ncn1 (single isomer, unassigned) [Compound Z-9-1] | 0.029 | 0.157 | 
N#Cc1cc(N2CCC(C(=O)N3N=CCC3c3cc(F)cc(F)c3)C3(CC3)C2)ncn1 (single isomer, unassigned) [Compound Z-25-2] | 0.042 | 0.001 | 
N#Cc1cc(N2CC[C@H](C(=O)N3N=CC[C@H]3c3cncc(F)c3)C3(CC3)C2)ncn1 (single isomer, unassigned) [Compound Z-48-d] | 0.05 | 0.007 | 
N#Cc1cc(N2CCC(C(=O)N3N=CCC3c3cncc(F)c3)CC23CC3)ncn1 (centres unmarked) [Compound Z-65, 6-(7-(5-(5-fluoropyridin-3-yl)-4,5-dihydro-1H-pyrazole-1-carbonyl)-4-aza-spiro[2.5]oct-4-yl)pyrimidine-4-carbonitrile] |  | 0.052 | 
NC(=O)c1cc(N2CCC(C(=O)N3N=CCC3c3cc(F)cc(F)c3)CC23CC3)ncn1 (centres unmarked) [Compound Z-66, 6-(7-(5-(3,5-difluorophenyl)-4,5-dihydro-1H-pyrazole-1-carbonyl)-4-aza-spiro[2.5]oct-4-yl)pyrimidine-4-carboxamide] |  |  | 0.02
NC(=O)c1cc(N2CCC(C(=O)N3N=CCC3c3cncc(F)c3)CC23CC3)ncn1 (centres unmarked) [Compound Z-67, 6-(7-(5-(5-fluoropyridin-3-yl)-4,5-dihydro-1H-pyrazole-1-carbonyl)-4-aza-spiro[2.5]oct-4-yl)pyrimidine-4-carboxamide] |  | 0.115 | 
Cc1nnc(N2CCC(C(=O)N3N=CCC3c3cncc(F)c3)C3(CC3)C2)o1 (centres unmarked) [Compound Z-68, (5-(5-fluoropyridin-3-yl)-4,5-dihydro-1H-pyrazol-1-yl)(5-(5-methyl-1,3,4-oxadizol-2-yl)-5-aza-spiro[2.5]oct-8-yl) methanone] |  |  | 0.364
CNC(=O)c1cc(N2CCC(C(=O)N3N=CCC3c3cc(F)cc(F)c3)CC23CC3)ncn1 (centres unmarked) [Compound Z-70-a, 6-(7-(5-(3,5-difluorophenyl)-4,5-dihydro-11H-pyrazole-1-carbonyl)-4-aza-spiro[2.5]oct-4-yl)-N-methylpyrimidine-4-carboxamide] |  |  | 0.021

Second part, led by results:

IC50 (RIPK1 enzyme) [µM] | Structure (SMILES) | IC50 (U937 cells; Homo sapiens, U-937, 48 h) [µM] | IC50 (U937 cells; [1]) [µM]
0.095 | NC(=O)c1cc(N2CC3CC(C(=O)N4N=CCC4c4ccccc4)CC3C2)ncn1 (centres unmarked) [Compound Z-10] | 0.153 | 
0.089 | N#Cc1cc(N2CC3CC(C(=O)N4N=CCC4c4cc(F)cc(F)c4)CC3C2)ncn1 (centres unmarked) [Compound Z-11, 6-(5-(5-(3,5-difluorophenyl)-4,5-dihydro-1H-pyrazole-1-carbonyl)hexahydrocyclopenta[C]pyrrol-2(1H)-yl)pyrimidine-4-carbonitrile] | 0.138 | 
0.123 | COc1cc(N2CC3CC(C(=O)N4N=CCC4c4ccccc4)CC3C2)ncn1 (centres unmarked) [Compound Z-12, (2-(6-methoxypyrimidin-4-yl)octahydrocyclopenta[c]pyrrol-5-yl)(5-phenyl-4,5-dihydro-1H-pyrazol-1-yl) ketone] |  | 
0.063 | COc1nccc(N2CC3CC(C(=O)N4N=CCC4c4ccccc4)CC3C2)n1 (centres unmarked) [Compound Z-13, (2-(2-methoxypyrimidin-4-yl)octahydrocyclopenta[c]pyrrol-5-yl)(5-phenyl-4,5-dihydro-1H-pyrazol-1-yl) ketone] | 0.146 | 
0.168 | N#Cc1cc(N2CC3CC(C(=O)N4N=CCC4c4ccccc4)CC3C2)ncn1 (centres unmarked) [Compound Z-72, 6-(5-(5-phenyl-4,5-dihydro-1H-pyrazole-1-carbonyl)hexahydrocyclopenta[C]pyrrol-2(1H)-yl)pyrimidine-4-carbonitrile] | 0.03 | 
